This is an account of results in patent US9732063B2, “Kinase inhibitors” (RESPIVERT LIMITED, priority 2012, dated 2017).

Assay [1] relates to PBMCs. The experiment in a line: IL-2 and IFN gamma release in CD3/CD28 stimulated PBMC cells. The assay is classed as cell-based. The settings on record: Homo sapiens. In outline:
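They were cultured with compound for 3 days. IL-2 and IFN-γ in supernatants were quantified by sandwich ELISA, and IC50 was derived from the dose-response curve.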

The target of the next assay is p38 MAPKα (Homo sapiens (Human), UniProt Q16539). The experiment in a line: p38 MAPKα enzyme inhibition (Z-LYTE FRET, Method 2). The format is biochemical.
A further assay deals with HT29 cells. As to the kind of experiment: IL-1β-induced IL-8 release in HT29 cells. The format is cell-based. The settings on record: Homo sapiens, HT-29, read-out: IC50 Values for Inhibition of Cytokine Release HT29 cells IL-8. How it is done:
HT29 cells, a human colon adenocarcinoma cell line, are plated in a 96 well plate (24 hrs) and pre-treated with compounds at the desired concentration for 2 hours before addition of 5 ng/mL of IL-1β (Abcam) for 24 hours. Supernatants are harvested for IL-8 quantification by Sandwich ELISA (Duo-set, R&D System). The IC50 is determined from the dose response curve.

Assay [2] relates to PBMCs. The experiment in a line: LPS-induced TNFα/IL-8 release in PBMC cells. The assay is classed as cell-based. The following applies: Homo sapiens. The essentials: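 TNFα and IL-8 in supernatants were measured by sandwich ELISA after 24 h of 1 ng/mL LPS (E. coli O111:B4) at 37 °C, 5% CO2. Test compounds were added 2 h before LPS to PBMCs from healthy subjects, separated on a density gradient.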

Another assay has as its target c-Src (Homo sapiens (Human), UniProt P12931). The experiment in a line: c-Src enzyme inhibition (Z-LYTE FRET). The assay is classed as biochemical. In outline:
(§1)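 2 hr RT enzyme + cpd (added solns 4/0.4/0.04/0.004 μg/mL); + FRET peptide (8 μM soln) + ATP soln (c-Src 800 μM, Syk 60 μM), 1 hr; protease development 1 hr; read donor/acceptor emission ratio.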

Another assay deals with GSK3α (Homo sapiens (Human), UniProt P49840). The experiment in a line: GSK 3α enzyme inhibition (Z-LYTE FRET, Method 2). The assay is classed as biochemical. The essentials: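 Z-LYTE FRET: GSK3α preincubated with compound 2 h at RT, then FRET peptide and ATP added (stocks 8 μM and 40 μM) for 1 h, followed by 1 h protease development. Compound stocks 4–0.004 μg/mL; phosphorylation from coumarin/fluorescein emission ratio.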

For assay [3], the system named is intestinal mucosa biopsies from the inflamed regions of the colon. The experiment in a line: Human biopsy assay (intestinal mucosa biopsies of ulcerative colitis patients). The format is cell-based. The settings on record: 24 hours; for cytokine (IL-1β, IL-6 and IL-8) release compared to the DMSO control: biopsies from ulcerative colitis patients; for IL-1β release / IL-6 release / IL-8 release: 1 μg/ml, biopsies of UC patients, DMSO control = 100%. On the procedure: Intestinal mucosa biopsies are obtained from the inflamed regions of the colon of IBD patients. […] DMSO control or test compounds at the desired concentration are added to the tissue and incubated for 24 hr in the organ culture chamber. The supernatant is harvested for determination of IL-6, IL-8, IL-1β and TNFα levels by R&D ELISA.

For another assay, the system named is TNBS-induced colitis. The settings on record: for LP inflammation / Ulcer grade: oral gavage BID, conducted over 2 days, mice; for inflammatory cell infiltrate in the reticular and laminar propria zone / ulcer grade and epithelial repair compared to the vehicle control: dosed orally at either 1 or 5 mg/kg.
The test system of another assay is d-U937 cells. The experiment in a line: LPS-induced TNFα/IL-8 release in d-U937 cells. The assay is classed as cell-based. The following applies: Homo sapiens. How it is done:
Cells are pre-incubated with final concentrations of test compound for 2 hr and are then stimulated with 0.1 μg/mL of LPS (from E. coli: O111:B4, Sigma) for 4 hr. The supernatant is collected for determination of TNFα and IL-8 concentrations by sandwich ELISA (Duo-set, R&D systems). […] The relative 50% effective concentration (REC50) is determined from the resultant concentration-response curve. The inhibition of IL-8 production is calculated at each concentration of test compound by comparison with vehicle control.

A further assay concerns the target Syk (Homo sapiens (Human), UniProt P43405). The experiment in a line: Syk enzyme inhibition (Z-LYTE FRET). The assay is classed as biochemical. The essentials: as §1
The mark [4] stands for this setting: read-out: IC50 Values for Inhibition of Cytokine Release PBMCs IFNγ.
[5] abbreviates: read-out: IC50 Values for Inhibition of Cytokine Release PBMCs IL-2.
Setting [6] is: read-out: IC50 Values for Inhibition of Cytokine Release PBMCs IL-8.
Where [7] appears, read: dU937, read-out: IC50 Values for Inhibition of Cytokine Release dU937 cells IL-8.
The mark [8] stands for this setting: dU937, read-out: IC50 Values for Inhibition of Cytokine Release dU937 cells TNFα.
[9] abbreviates: read-out: IC50 Values for Inhibition of Cytokine Release PBMCs TNFα.

Molecules are shown by their SMILES. Like-named read-outs stand apart in the source and are kept apart here. Bounds are passed on as bounds.

Chain of GSK3α (P49840 whole entry): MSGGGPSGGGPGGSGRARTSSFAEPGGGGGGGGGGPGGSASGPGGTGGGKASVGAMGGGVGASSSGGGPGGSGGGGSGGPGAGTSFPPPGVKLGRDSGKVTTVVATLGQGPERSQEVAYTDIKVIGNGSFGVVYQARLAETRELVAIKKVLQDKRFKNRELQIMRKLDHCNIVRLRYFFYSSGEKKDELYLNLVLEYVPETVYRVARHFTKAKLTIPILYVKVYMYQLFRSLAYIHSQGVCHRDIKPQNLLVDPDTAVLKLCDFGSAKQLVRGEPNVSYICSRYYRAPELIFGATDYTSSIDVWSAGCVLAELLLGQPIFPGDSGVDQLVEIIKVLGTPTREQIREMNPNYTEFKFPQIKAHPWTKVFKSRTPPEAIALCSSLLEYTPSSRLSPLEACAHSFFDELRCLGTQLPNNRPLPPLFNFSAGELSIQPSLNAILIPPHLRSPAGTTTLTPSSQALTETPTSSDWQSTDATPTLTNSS
Chain of p38 MAPKα (Q16539 whole entry): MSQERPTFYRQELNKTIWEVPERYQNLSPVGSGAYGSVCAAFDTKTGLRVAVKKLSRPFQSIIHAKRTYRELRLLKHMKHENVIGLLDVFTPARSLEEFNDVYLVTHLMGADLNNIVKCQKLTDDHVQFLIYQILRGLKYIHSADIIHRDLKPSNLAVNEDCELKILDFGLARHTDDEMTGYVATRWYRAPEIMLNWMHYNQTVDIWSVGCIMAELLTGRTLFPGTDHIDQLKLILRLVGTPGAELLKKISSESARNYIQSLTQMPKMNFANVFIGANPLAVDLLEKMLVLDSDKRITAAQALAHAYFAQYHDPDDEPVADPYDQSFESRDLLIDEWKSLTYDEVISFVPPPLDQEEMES
Chain of c-Src (P12931 whole entry, looked up): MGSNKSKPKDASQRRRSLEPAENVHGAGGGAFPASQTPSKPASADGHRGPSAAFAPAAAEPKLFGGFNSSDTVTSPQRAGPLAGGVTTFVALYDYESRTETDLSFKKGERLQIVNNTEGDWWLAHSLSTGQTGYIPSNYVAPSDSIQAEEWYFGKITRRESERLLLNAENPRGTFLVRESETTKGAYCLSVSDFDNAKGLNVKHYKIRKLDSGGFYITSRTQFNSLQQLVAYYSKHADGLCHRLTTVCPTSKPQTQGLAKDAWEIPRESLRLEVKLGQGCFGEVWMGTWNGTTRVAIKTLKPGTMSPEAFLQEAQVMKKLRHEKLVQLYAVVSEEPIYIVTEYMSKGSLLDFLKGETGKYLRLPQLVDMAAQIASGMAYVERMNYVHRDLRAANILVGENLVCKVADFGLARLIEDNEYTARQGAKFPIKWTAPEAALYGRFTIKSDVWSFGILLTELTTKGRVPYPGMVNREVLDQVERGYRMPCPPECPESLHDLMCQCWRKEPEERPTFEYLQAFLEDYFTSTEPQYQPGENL
Experimental for TNBS-induced colitis: On Day 0 of the study TNBS (200 μL) is administered intra-colonically via a plastic catheter followed by BID dosing of the vehicle, reference or test compound for 2 or 4 days. During the study animals are weighed every day and stool observations are made and recorded as a score, based on stool consistency. At the time of sacrifice on Day 2 (or Day 4) the large intestine is removed and the length and weight recorded. Sections of the colon are taken for either MPO analysis to determine neutrophil infiltration or for histopathology involving scoring to determine disease severity.

On to `COCCOCCOCCOc1cc(Nc2nccc(Oc3ccc(NC(=O)Nc4cc(C(C)C)nn4-c4ccc(C)cc4)c4ccccc34)n2)cc(OC)c1` [Example 13, 1-(3-Isopropyl-1-(p-tolyl)-1H-pyrazol-5-yl)-3-(4-((2-((3-methoxy-5-(2-(2-(2-methoxy-ethoxy)ethoxy)ethoxy)phenyl)amino)pyrimidin-4-yl)oxy)naphthalen-1-yl)urea], for which the IC50 (usually the point on the concentration scale where inhibition reaches its midpoint) with PBMCs [1] (setting [4]) is 3 nM; with PBMCs [1] (setting [5]) it was 19.2 nM; against p38 MAPKα, 65 nM; in the assay with HT29 cells, 4.7 nM; in the assay with PBMCs [2] (setting [6]), 2.5 nM; against c-Src, 10 nM. Besides, the figures for the IC50 against GSK3α, in the assay with d-U937 cells (setting [7]) and with d-U937 cells (setting [8]) were greater than 8920 nM, 1.4 nM and 4.4 nM, respectively. Moreover, the “cytokine (IL-1β, IL-6 and IL-8) release compared to the DMSO control” value (from here on “cytokine … compared to the DMSO control”) in [3] (0.1 μg/mL (data not shown)) and in assay [3] (1 μg/mL) was “significantly inhibited” throughout. In addition, the IL-1β release in [3] came to 10 ± 13%. In addition, in assay [3], the IL-6 release is 32 ± 64%. The IL-8 release in [3] came out at 3 ± 4%. Also, the LP inflammation with TNBS-induced colitis (1 mg/kg) is reported as 2.1 ± 0.3; in the assay with TNBS-induced colitis (5 mg/kg), 2.6 ± 0.3. For the same compound, the figures for the Ulcer grade in the assay on TNBS-induced colitis (1 mg/kg) and in the assay on TNBS-induced colitis (5 mg/kg) were 2.5 ± 0.4 and 3.1 ± 0.3, respectively. In addition, the “inflammatory cell infiltrate in the reticular and laminar propria zone” value (“inflammatory cell infiltrate” below) with TNBS-induced colitis is listed as “marked reduction”. In addition, in the assay on TNBS-induced colitis, the “ulcer grade and epithelial repair compared to the vehicle control” value is given as “marked improvements”.

On to `COCCOCCOCCOc1cc(Nc2nccc(Oc3ccc(NC(=O)Nc4cc(C(C)(C)C)nn4-c4ccc(OC)nc4)c4ccccc34)n2)cc(OC)c1` [Example 38, 1-(3-(tert-Butyl)-1-(6-methoxypyridin-3-yl)-1H-pyrazol-5-yl)-3-(4-((2-((3-methoxy-5-(2-(2-(2-methoxyethoxyl)ethoxy)ethoxy)phenyl)amino)pyrimidin-4-yl)oxy)naphthalen-1-yl)urea], for which the IC50 with PBMCs [1] (setting [4]) came to 1.3 nM; with PBMCs [1] (setting [5]) it was 40.9 nM; on p38 MAPKα, 132 nM; with HT29 cells it was 1.8 nM; in the assay with PBMCs [2] (setting [6]), 1.5 nM; on c-Src it was 10 nM. For the same compound, the IC50 against Syk came out at 25 nM; on GSK3α, 5440 nM; with d-U937 cells (setting [7]) it was 1 nM.

As to `COCCOCCOCCOc1cc(Nc2nccc(Oc3ccc(NC(=O)Nc4cc(C(C)(C)C)nn4-c4ccc(OC)cc4)c4ccccc34)n2)cc(OC)c1` [Example 44, 1-(3-(tert-Butyl)-1-(4-methoxyphenyl)-1H-pyrazol-5-yl)-3-(4-((2-((3-methoxy-5-(2-(2-(2-methoxyethoxy)ethoxy)ethoxy)phenyl)amino)pyrimidin-4-yl)oxy)naphthalen-1-yl)urea], the IC50 in the assay with PBMCs [1] (setting [4]) amounted to 1.4 nM; in the assay on PBMCs [1] (setting [5]), 38.5 nM; on p38 MAPKα, 103 nM; in the assay with HT29 cells, 1.2 nM; in the assay on PBMCs [2] (setting [6]) it was 1.6 nM; in the assay with PBMCs [2] (setting [9]), 0.6 nM. Further, the IC50 against c-Src came to 10 nM; on Syk, 23 nM; in the assay on d-U937 cells (setting [7]), 0.6 nM; with d-U937 cells (setting [8]) it was 0.5 nM. Further, the “cytokine … compared to the DMSO control” value in [3] (1 μg/mL) is on record as “significantly inhibited”. In assay [3], this compound had an IL-1β release of 4 ± 5%. Also, the IL-6 release in assay [3] is 25 ± 44%. Besides, the IL-8 release in [3] turned out to be 2 ± 2%. Besides, the “inflammatory cell infiltrate” value in the assay on TNBS-induced colitis is “marked reduction”. Also, in the assay with TNBS-induced colitis, the “ulcer grade and epithelial repair compared to the vehicle control” value is “marked improvements”.

Take `COc1cc(Nc2nccc(Oc3ccc(NC(=O)Nc4cc(C(C)(C)C)nn4-c4ccc(C)cc4)c4ccccc34)n2)cc(S(=O)(=O)C2CC2)c1` [Example 47, 1-(3-(tert-Butyl)-1-(p-tolyl)-1H-pyrazol-5-yl)-3-(4-((2-((3-(cyclopropylsulfonyl)-5-methoxy-phenyl)amino)pyrimidin-4-yl)oxy)naphthalen-1-yl)urea]: the IC50 in the assay on PBMCs [1] (setting [4]) was 1.1 nM; with PBMCs [1] (setting [5]) it was 95.8 nM; on p38 MAPKα, 162 nM; in the assay with HT29 cells it was 1.5 nM; in the assay on PBMCs [2] (setting [6]), 2.6 nM; at c-Src, 46 nM. Further, the IC50 stood at 6830 nM at GSK3α, 1.2 nM in the assay with d-U937 cells (setting [7]) and 0.6 nM in the assay with d-U937 cells (setting [8]). The “cytokine … compared to the DMSO control” value in assay [3] (1 μg/mL) was “significantly inhibited”. Further, the IL-1β release in assay [3] was found to be 5 ± 6%. For the same compound, the IL-6 release in [3] came to 17 ± 5%. In [3], the IL-8 release came out at 26 ± 15%. Also, the LP inflammation in the assay with TNBS-induced colitis (1 mg/kg) came to 2.6 ± 0.3; in the assay with TNBS-induced colitis (5 mg/kg) it was 2.1 ± 0.3. The values for the Ulcer grade with TNBS-induced colitis (1 mg/kg) and with TNBS-induced colitis (5 mg/kg) were 3.5 ± 0.4 and 2.8 ± 0.4, respectively. Besides, in the assay with TNBS-induced colitis, the “inflammatory cell infiltrate” value is “marked reduction”. Also, the “ulcer grade and epithelial repair compared to the vehicle control” value with TNBS-induced colitis was “marked improvements”.

Consider `COCCOCCOCCOc1cc(Nc2cc(Oc3ccc(NC(=O)Nc4cc(C(C)(C)C)nn4-c4ccc(C)cc4)c4ccccc34)ccn2)cc(OC)c1` [Example 56, 1-(3-(tert-Butyl)-1-(p-tolyl)-1H-pyrazol-5-yl)-3-(4-((2-((3-methoxy-5-(2-(2-(2-methoxyethoxy)ethoxy)ethoxy)phenyl)amino)pyridin-4-yl)oxy)naphthalen-1-yl)urea], for which the IC50 with PBMCs [1] (setting [4]) amounted to 2.7 nM; in the assay on PBMCs [1] (setting [5]) it was 152 nM; at p38 MAPKα, 140 nM; in the assay on HT29 cells, 4.5 nM; in the assay on PBMCs [2] (setting [6]), 2.4 nM; in the assay with PBMCs [2] (setting [9]), 1.6 nM. Besides, the IC50 on c-Src stood at 28 nM; against Syk, 43 nM; with d-U937 cells (setting [7]), 1.4 nM; in the assay with d-U937 cells (setting [8]) it was 0.8 nM. In addition, the “cytokine … compared to the DMSO control” value in assay [3] (1 μg/mL) was “significantly inhibited”. The IL-1β release in assay [3] is given as 5 ± 1%. The compound also came in with an IL-6 release in assay [3] of 19 ± 18%. The same compound returned an IL-8 release in assay [3] of 3 ± 3%. Also, the LP inflammation is reported as 2.1 ± 0.3 in the assay with TNBS-induced colitis (1 mg/kg) and 2.4 ± 0.3 with TNBS-induced colitis (5 mg/kg). For the same compound, the figures for the Ulcer grade in the assay with TNBS-induced colitis (1 mg/kg) and in the assay on TNBS-induced colitis (5 mg/kg) were 2.3 ± 0.4 and 3.2 ± 0.4, respectively. For the same compound, in the assay on TNBS-induced colitis, the “inflammatory cell infiltrate” value is “marked reduction”. Also, in the assay on TNBS-induced colitis, the “ulcer grade and epithelial repair compared to the vehicle control” value is reported as “marked improvements”.

As to `COCCOCCOCCOc1cc(Nc2nccc(Oc3ccc(NC(=O)Nc4cc(C(C)(C)C)nn4-c4ccc(C)cc4)c4ccccc34)n2)cc(OC)n1` [Example 69, 1-(3-(tert-Butyl)-1-(p-tolyl)-1H-pyrazol-5-yl)-3-(4-((2-((2-methoxy-6-(2-(2-(2-methoxyethoxy)ethoxy)ethoxy)pyridin-4-yl)amino)pyrimidin-4-yl)oxy)naphthalen-1-yl)urea], the concentration for half-maximal inhibition (IC50) in the assay on PBMCs [1] (setting [4]) amounted to 1.4 nM; with PBMCs [1] (setting [5]), 50.3 nM; against p38 MAPKα it was 172 nM; in the assay with HT29 cells, 3.1 nM; with PBMCs [2] (setting [6]), 1.6 nM; against c-Src, 14 nM. Also, the IC50 against Syk was 27 nM; at GSK3α, greater than 10000 nM; in the assay on d-U937 cells (setting [7]), 0.9 nM; in the assay with d-U937 cells (setting [8]), 1.2 nM.
